Measurements reported in ChEMBL document CHEMBL1201862, “PubChem BioAssay data set” (2004).
Values joined by “and” are separate entries in the source; they are usually repeats but may differ in a detail not shown here. Equal entries are not always repeated. Active and inactive are the calls of the source.

Columns and labels:
[1] = Luminescence Cell-Based Dose Retest to Confirm Inhibitors of Cancer Stem Cells. [Related pubchem assays (depositor defined):AID2717, AID2721]; type: functional; details: Homo sapiens
Cytochrome P450 3A4 = Cytochrome P450 3A4 (Homo sapiens, UniProt P08684);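 also: CYP3A4 tested as one member of a cytochrome P450 panel screen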
[2] = NIH-3T3 fibroblast cytotoxicity, dose response, cytotoxicity control, cell-based, fluorescence, Alamar Blue, secondary assay (AID 2327); type: functional;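 also: NIH-3T3 mouse fibroblasts cultured with fluconazole at 8 µg/mL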
[3] = fluconazole-exposed Candida albicans growth modulators – fluorescence, retest, confirmation (AID 2467); type: functional, cell-based
Cytochrome P450 2C19 = Cytochrome P450 2C19 (Homo sapiens, UniProt P33261); experiment: Cytochrome panel assay with activity outcomes. Panel member name: p450-cyp2c19 Compounds with AC50 equal or less than 10 uM are considered active; type: functional; details: read-out: AC50
Cytochrome P450 1A2 = target: T1, Cytochrome P450 1A2 (Homo sapiens, UniProt P05177);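 also: PubChem cytochrome P450 panel assay, CYP1A2 panel member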
T1 sequence (P05177 whole entry): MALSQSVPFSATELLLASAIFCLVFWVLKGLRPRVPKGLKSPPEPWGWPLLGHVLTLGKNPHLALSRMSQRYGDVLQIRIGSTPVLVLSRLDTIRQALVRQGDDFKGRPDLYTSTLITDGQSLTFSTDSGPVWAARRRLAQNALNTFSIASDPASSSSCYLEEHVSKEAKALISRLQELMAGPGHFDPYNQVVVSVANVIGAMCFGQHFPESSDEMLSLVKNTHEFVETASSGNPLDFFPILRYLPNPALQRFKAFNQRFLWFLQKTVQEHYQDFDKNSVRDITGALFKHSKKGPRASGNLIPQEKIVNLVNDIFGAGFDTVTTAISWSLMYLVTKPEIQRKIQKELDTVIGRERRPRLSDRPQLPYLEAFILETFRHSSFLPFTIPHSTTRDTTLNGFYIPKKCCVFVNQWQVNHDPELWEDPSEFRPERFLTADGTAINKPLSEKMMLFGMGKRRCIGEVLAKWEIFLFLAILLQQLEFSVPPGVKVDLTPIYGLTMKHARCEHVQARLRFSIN

Cytochrome P450 2C9 = Cytochrome P450 2C9 (Homo sapiens, UniProt P11712)
[4] = system: Streptococcus sp. 'group A'; experiment: Streptococcus pyogenes SK(-)GAS viability under kanamycin – luminescence, BacTiterGlo, confirmation, counter-screen for streptokinase expression inhibitor project, dose response (AID 1900); type: functional, organism-based
[5] = Trypanosoma cruzi growth suppression in host cells – NIH3T3 host cells, beta-gal luminescence, confirmation (AID 2044); type: functional, cell-based;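 also: intracellular parasites grown in NIH/3T3 mouse fibroblasts as host cells; luminescent beta-galactosidase reporter signal from transgenic T. cruzi replicating inside host cells; inhibitors lower the luminescence signal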
[6] = NIH3T3 cell viability loss – ATP luminescence, mouse fibroblasts, counter-screen, dose response (AID 2010); type: functional, cell-based;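 also: cells exposed to compound for about 90 hours before reading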
Streptococcus = experiment: GAS UMAA2166 growth inhibition – luminescence, BacTiterGlo, counter-screen for streptokinase expression inhibitor project, dose response (AID 1915); type: functional, organism-based;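 also: potency for reduction of bacterial viability or growth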
INS1 = experiment: INS-1E survival protection against cytokine death – cell-based, luminescence, retest, dose response (AID 449756); type: functional; details: Rattus norvegicus;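 also: cell death triggered by IL-1 beta plus TNF-alpha plus IFN-gamma mixture; protective hits raise ATP signal compared with cytokine alone wells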
[7] = target: T2, Replicative DNA helicase DnaB (Mycobacterium tuberculosis, UniProt P9WMR3); experiment: DnaB intein splicing inhibitors, dose response, biochemical, cell-free fluorescence (AID 449749); type: functional
T2 sequence (P9WMR3 whole entry): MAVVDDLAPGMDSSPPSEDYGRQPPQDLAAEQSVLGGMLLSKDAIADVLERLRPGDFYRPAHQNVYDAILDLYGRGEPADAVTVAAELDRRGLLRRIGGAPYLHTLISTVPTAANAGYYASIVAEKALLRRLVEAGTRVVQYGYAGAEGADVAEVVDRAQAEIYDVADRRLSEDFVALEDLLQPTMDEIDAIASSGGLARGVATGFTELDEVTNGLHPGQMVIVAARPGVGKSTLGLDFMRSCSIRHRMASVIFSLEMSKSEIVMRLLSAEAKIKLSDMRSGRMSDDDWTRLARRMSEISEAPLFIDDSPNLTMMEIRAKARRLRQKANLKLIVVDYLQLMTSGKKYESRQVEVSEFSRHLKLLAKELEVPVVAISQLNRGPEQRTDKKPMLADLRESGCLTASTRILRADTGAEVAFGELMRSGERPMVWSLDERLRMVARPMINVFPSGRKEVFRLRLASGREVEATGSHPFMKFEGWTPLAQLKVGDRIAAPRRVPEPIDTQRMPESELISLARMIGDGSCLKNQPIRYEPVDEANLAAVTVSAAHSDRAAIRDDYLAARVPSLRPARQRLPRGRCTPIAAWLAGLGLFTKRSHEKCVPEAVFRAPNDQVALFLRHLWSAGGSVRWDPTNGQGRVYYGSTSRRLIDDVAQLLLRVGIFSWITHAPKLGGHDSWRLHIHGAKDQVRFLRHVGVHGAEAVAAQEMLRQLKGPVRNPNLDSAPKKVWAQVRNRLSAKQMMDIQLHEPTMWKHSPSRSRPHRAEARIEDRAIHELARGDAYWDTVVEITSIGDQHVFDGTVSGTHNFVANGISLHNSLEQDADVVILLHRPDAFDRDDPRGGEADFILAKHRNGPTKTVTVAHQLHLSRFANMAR

Protein RecA = target: T3, Protein RecA (Mycobacterium tuberculosis, UniProt P9WHJ3); experiment: Fluorescence Cell-Free Homogeneous Dose Retest to Identify Inhibitors of RecA-Intein Splicing Activity. [Related pubchem assays (depositor defined):AID2097, AID2223, AID489010, AID492950]; type: functional
T3 sequence (P9WHJ3 whole entry): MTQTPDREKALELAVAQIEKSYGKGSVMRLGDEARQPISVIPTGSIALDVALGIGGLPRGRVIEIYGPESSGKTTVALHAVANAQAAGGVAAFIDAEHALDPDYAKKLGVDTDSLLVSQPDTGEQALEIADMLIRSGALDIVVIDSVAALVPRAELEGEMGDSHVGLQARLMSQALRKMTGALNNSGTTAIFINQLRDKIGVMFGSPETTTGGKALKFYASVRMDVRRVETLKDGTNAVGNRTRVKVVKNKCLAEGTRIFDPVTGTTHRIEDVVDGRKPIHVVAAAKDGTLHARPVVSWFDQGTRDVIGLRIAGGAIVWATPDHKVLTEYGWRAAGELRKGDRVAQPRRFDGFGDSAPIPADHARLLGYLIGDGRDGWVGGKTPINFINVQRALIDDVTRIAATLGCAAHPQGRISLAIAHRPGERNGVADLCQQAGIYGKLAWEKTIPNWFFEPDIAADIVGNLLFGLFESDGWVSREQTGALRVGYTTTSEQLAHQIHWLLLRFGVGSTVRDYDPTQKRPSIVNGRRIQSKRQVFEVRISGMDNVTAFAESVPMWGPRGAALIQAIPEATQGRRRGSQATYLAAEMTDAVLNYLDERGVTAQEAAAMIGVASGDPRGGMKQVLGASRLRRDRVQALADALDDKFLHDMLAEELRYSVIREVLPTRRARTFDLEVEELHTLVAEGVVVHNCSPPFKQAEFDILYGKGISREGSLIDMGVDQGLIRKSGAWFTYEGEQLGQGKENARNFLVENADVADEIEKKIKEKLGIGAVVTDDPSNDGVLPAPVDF

[8] = target: T4, Rac GTPase-activating protein 1 (Homo sapiens, UniProt Q9H0H5); experiment: blockers of MgcRacGAP-driven Rac1 GTP hydrolysis – biochemical, ADP Hunter fluorescence, primary and confirmatory, confirmation (AID 624330); type: functional
T4 sequence (Q9H0H5 whole entry): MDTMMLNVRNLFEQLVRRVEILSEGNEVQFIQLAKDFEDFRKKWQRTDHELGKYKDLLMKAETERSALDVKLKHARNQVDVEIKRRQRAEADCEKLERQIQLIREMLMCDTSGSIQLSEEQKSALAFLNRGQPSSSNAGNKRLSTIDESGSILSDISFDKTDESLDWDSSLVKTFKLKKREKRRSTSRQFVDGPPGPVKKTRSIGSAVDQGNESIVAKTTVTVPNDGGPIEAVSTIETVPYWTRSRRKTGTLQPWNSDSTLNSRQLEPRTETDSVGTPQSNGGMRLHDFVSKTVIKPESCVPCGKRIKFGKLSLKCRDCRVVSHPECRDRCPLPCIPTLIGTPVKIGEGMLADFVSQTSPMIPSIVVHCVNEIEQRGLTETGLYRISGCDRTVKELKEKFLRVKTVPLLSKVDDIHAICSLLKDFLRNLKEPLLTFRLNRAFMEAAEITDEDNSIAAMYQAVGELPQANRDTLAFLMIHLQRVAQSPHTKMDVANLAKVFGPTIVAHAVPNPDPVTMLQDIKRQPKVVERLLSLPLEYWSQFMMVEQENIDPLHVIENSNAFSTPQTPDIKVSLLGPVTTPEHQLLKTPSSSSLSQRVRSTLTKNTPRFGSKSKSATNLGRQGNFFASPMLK

[9] = reduction of Shn3 3'UTR-driven luciferase in osteoblasts – cell-based, Clone20 osteoblasts, firefly luciferase, cherry-picked, dose response (AID 624132); type: functional;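 also: firefly luciferase luminescence from reporter carrying the Shn3 3'UTR in osteoblasts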
[10] = loss of viability in HepG2 cells – cell-based, CellTiter-Glo, cherry-picked, cytotoxicity control for Shn3 inhibitor project, dose response (AID 624134); type: functional
[11] = non-specific 3'UTR reporter inhibition in Clone20-Shn3RL – cell-based, Renilla luciferase, cherry-picked, counter-screen for Shn3 inhibitor project, dose response (AID 624133); type: functional

Cytochrome P450 3A4, sequence (P08684 whole entry): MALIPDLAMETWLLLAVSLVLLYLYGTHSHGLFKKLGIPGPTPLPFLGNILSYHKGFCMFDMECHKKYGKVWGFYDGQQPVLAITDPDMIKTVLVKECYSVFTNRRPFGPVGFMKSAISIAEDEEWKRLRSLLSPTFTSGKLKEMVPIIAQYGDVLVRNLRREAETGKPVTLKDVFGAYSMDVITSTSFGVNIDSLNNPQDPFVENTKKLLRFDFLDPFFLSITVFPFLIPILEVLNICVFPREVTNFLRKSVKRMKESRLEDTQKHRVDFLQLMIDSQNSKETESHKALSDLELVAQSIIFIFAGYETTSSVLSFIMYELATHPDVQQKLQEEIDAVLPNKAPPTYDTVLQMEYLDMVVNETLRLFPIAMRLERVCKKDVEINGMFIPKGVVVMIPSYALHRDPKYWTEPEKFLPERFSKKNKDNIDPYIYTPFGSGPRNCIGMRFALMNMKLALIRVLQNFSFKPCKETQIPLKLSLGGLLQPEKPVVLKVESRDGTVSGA
Cytochrome P450 2C19, sequence (P33261 whole entry): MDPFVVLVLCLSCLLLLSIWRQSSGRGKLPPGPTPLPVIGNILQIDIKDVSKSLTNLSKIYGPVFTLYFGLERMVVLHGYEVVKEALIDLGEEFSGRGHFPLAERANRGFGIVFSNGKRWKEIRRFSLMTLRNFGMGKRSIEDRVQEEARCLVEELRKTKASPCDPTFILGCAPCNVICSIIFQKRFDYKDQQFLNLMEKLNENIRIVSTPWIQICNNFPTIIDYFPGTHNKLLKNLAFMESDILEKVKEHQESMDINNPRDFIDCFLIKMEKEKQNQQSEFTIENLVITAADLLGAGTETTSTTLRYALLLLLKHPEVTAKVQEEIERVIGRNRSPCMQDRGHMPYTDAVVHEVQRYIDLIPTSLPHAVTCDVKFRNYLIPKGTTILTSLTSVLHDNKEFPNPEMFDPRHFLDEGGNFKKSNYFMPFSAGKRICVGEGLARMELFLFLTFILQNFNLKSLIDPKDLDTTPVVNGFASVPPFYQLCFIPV
Cytochrome P450 2C9, sequence (P11712 whole entry): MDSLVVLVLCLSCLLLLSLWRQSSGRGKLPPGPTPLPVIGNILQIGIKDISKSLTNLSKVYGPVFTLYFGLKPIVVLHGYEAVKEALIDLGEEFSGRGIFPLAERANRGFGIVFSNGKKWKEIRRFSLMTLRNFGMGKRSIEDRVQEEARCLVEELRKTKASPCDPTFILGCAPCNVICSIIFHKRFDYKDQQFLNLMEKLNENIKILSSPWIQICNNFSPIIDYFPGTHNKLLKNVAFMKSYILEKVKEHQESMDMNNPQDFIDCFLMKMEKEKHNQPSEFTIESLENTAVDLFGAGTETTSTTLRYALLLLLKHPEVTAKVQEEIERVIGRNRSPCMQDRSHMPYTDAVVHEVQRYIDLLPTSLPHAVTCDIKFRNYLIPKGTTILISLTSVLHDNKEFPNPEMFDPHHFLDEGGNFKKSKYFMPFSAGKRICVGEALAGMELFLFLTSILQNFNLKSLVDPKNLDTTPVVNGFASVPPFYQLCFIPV

CC(C)(C)OC(=O)N1CCC(NC(=O)c2[nH]cnc2C(=O)Nc2ccc(Cl)cc2)CC1
AC50 [1]: 4.79 µM (active)

COc1ccc(Oc2ncc3nc(CCc4ccccc4)c(=O)n(C4CC4)c3n2)cc1
AC50 (Cytochrome P450 3A4): 5.01 µM (inconclusive)

Cc1ccc(NC(=O)C2C(C(=O)O)C3C=CC2C32CC2)cc1 (stereo unspecified)
EC50 [2]: 46.2 µM (active) | EC50 [3]: > 38 µM (not active)

Clc1ccccc1-c1ccc2ncnc(N3CCNCC3)c2c1
AC50 (Cytochrome P450 2C19): 31.6 µM (inconclusive) | AC50 (Cytochrome P450 3A4): 25.1 µM (inconclusive)

Cc1nnc(SCC(=O)NCC2CCCCC2)n(N)c1=O
AC50 (Cytochrome P450 1A2): 25.1 µM (inconclusive) | AC50 (Cytochrome P450 3A4): 25.1 µM (inconclusive)

C/C(NNc1ccccc1)=C1/C(=O)NC(=O)N(c2ccccc2)C1=O
AC50 [1]: 1.05 µM (active)

Cc1ccc(C2C(C(=O)c3ccccc3)=C(O)C(=O)N2CCN2CCOCC2)o1 (stereo unspecified)
AC50 (Cytochrome P450 2C19): 14.1 µM (inconclusive) | AC50 (Cytochrome P450 3A4): 25.1 µM (inconclusive) | AC50 (Cytochrome P450 2C9): 7.08 µM (inconclusive)

CCCCN(C)S(=O)(=O)c1ccc(C(=O)Nc2nnc(-c3cccs3)o2)cc1
EC50 [2]: > 150 µM (inactive) | EC50 [4]: 0.68 µM (active) | EC50 [3]: 0.861 µM (active) | EC50 [5]: 1.09 µM (active) | EC50 [6]: 8 µM (active) | EC50 (Streptococcus): 3.65 µM (active)

O=C(c1ccncc1)N1CCC2(CC1)CN(c1ccc(-c3ccccc3)cc1)C2
AC50 (Cytochrome P450 2C19): 2.51 µM (inconclusive) | AC50 (Cytochrome P450 3A4): 2.51 µM (inconclusive)

Cc1cc(CSc2ccccc2)ccc1NC(=O)COc1ccccc1
AC50 (Cytochrome P450 2C19): 2.24 µM (inconclusive) | AC50 (Cytochrome P450 1A2): 7.08 µM (inconclusive) | AC50 (Cytochrome P450 3A4): 12.6 µM (inconclusive)

COc1ccc(-c2cn3c([n+]2-c2ccccc2)CCCCC3)cc1
EC50 [2]: > 150 µM (inactive) | EC50 [3]: 2.53 µM (active) | AC50 (INS1): 2.58 µM (active)

CC[C@H]1CC[C@H]2[C@@H]3CC=C4C[C@H](OC(C)=O)[C@@H](N)C[C@@]4(C)[C@H]3CC[C@@]12C
AC50 (Cytochrome P450 3A4): 2.51 µM (inconclusive)

COc1ccc(-n2c(=O)c(C)nc3cnc(N4CCNCC4)nc32)cc1
AC50 (Cytochrome P450 3A4): 25.1 µM (inconclusive)

O=C(CN1CCN(Cc2ccccc2)CC1)N1CCCc2c1c(=O)oc1ccc(O)cc21
AC50 (Cytochrome P450 1A2): 6.31 µM (inconclusive) | AC50 (Cytochrome P450 3A4): 3.98 µM (inconclusive)

O=C(c1ccoc1)N1CCC2(CC1)Oc1ccc(F)cc1C(=O)C21CC(c2ccccc2)=NO1 (stereo unspecified)
EC50 [2]: > 150 µM (inconclusive) | EC50 [3]: 1.18 µM (active)

CCOC(=O)C1=C(N)Oc2cc(O)ccc2C1c1cccc(Cl)c1 (stereo unspecified)
AC50 [1]: 1.77 µM (active)

COc1ccc(C(=O)N2CCC3(CCN(Cc4cc(C(F)(F)F)cc(C(F)(F)F)c4)CC3)CC2)cc1
AC50 (Cytochrome P450 3A4): 25.1 µM (inconclusive)

Nc1ccc2[nH]c(Cc3ccccc3)nc2c1
AC50 [7]: > 380 µM (inactive) | EC50 (Protein RecA): 55.9 µM (active) | IC50 [8]: 76.2 µM (active)

CC(C)NC(=O)c1ccccc1NC(=O)/C=C/c1ccc([N+](=O)[O-])cc1
AC50 (Cytochrome P450 3A4): 35.5 µM (inconclusive) | AC50 (Cytochrome P450 2C9): 2 µM (inconclusive)

COc1ccc(-c2sc3ccccc3c2C#CCCO)cc1
AC50 [1]: 4.81 µM (active)

CCOc1ccc(OCC(=O)N(CCC2=CCCCC2)c2c(N)n(Cc3ccccc3)c(=O)[nH]c2=O)cc1
AC50 [1]: 3.6 µM (active) | AC50 [9]: 8.66 µM (active) | AC50 [10]: 27.3 µM (active) | AC50 [11]: 25.1 µM (active)

COc1cc(/C=C(/C#N)c2nc3ccccc3[nH]2)ccc1OCC(=O)Nc1ccccc1C
AC50 [1]: 0.865 µM (active)

COc1ccc2sc(-c3ccc(SC)cc3)c(-c3ccc(O)cc3)c2c1
AC50 [1]: 2.61 µM (active)

COC(=O)c1ccccc1NC(=O)CSc1nnc(C(CO)NC(=O)c2ccccc2Cl)n1C (stereo unspecified)
AC50 (Cytochrome P450 3A4): 22.4 µM (inconclusive)

COc1ccc(CCNC(=O)Cn2c(=O)oc3ccccc32)cc1OC
AC50 (Cytochrome P450 1A2): 12.6 µM (inconclusive) | AC50 (Cytochrome P450 3A4): 22.4 µM (inconclusive) | AC50 (Cytochrome P450 2C9): 2.51 µM (inconclusive)

COc1cccc(OC)c1C(=O)Nc1cc(C)on1
AC50 (Cytochrome P450 2C19): 39.8 µM (inconclusive) | AC50 (Cytochrome P450 1A2): 22.4 µM (inconclusive) | AC50 (Cytochrome P450 3A4): 20 µM (inconclusive)

Cc1cccc(NC(=S)N/N=C(\c2ccccc2)C(C)C)c1
EC50 [2]: > 150 µM (inconclusive) | EC50 [3]: 3.98 µM (active)

O=c1cc(N2CCOCC2)oc2c(-c3ccccc3)cccc12 [LY-294002]
AC50 (Cytochrome P450 3A4): 10 µM (inconclusive) and 5.01 µM (inconclusive)
